The results in this text go back to the Deep4Chem optical property database.

This data set can be described thus: solvent given as SMILES.

“And” between values parts separate entries of the source, which are not always exact repeats. Equal values may be shown once.

For the compound `c1ccc(-c2nc(-c3ccccc3)nc(-c3ccc(-n4c5ccc(-n6c7ccccc7c7ccccc76)cc5c5ccc6c(c7ccccc7n6-c6ccccc6)c54)cc3)n2)cc1`, the emission maximum (in Cc1ccccc1) worked out at 463.87 nm.

With `F[B-]1(F)n2c(-c3ccccc3)cc(-c3ccccc3)c2N=C2C(c3ccccc3)=CC(c3ccccc3)=[N+]21`, the emission maximum by setting is: (in CC#N) 673 nm; (in ClC(Cl)Cl) 672 nm.

Under “in Cc1ccccc1”, `C(#Cc1nc2ccccc2s1)c1ccc(N(c2ccc(C#Cc3nc4ccccc4s3)cc2)c2ccc(C#Cc3nc4ccccc4s3)cc2)cc1` registered an emission maximum of 434 nm.

In turn, `FC(F)(F)C(F)(F)C(F)(F)C1=NC2=C(Sc3ccccc3)C=C3c4cc(Sc5ccccc5)c5nc(C(F)(F)C(F)(F)C(F)(F)F)nc6c(Sc7ccccc7)cc(c4c56)=C4C=C(Sc5ccccc5)C(=N1)C2C34` (stereo not drawn) showed an emission maximum (in C1CCOC1) of 606 nm.

In turn, `COc1ccc(-c2ccc(OC)cc2)cc1` displayed an emission maximum (in C1CCCCC1) of 363.77 nm.

Turning to `CCC1=C(C)C2=Cc3cccn3[B-](F)(F)[N+]2=C1C`, the emission maximum is recorded as 517.5 nm (in C1CCCCC1); 516 nm (in CC(C)=O); 517 nm (in CCO); 516.5 nm (in CCOC(C)=O); 516.5 nm (in CO); 515.5 nm (in OCC(F)(F)F).

On to `CCC12C(=C3C(=C4c5ccc(-c6ccc(CO)cc6)cc5S(=O)(=O)C41CC)C(F)(F)C(F)(F)C3(F)F)c1ccc(-c3ccc(CO)cc3)cc1S2(=O)=O` (stereo not drawn), for which the emission maximum (in C1COCCO1) was 538.57 nm.

Turning to `F[B-]1(F)OC(c2ccc3ccccc3c2)=CC(c2ccc3ccccc3c2)=[O+]1`, the emission maximum came out at 510 nm (in CC#N) and 428 nm (in ClC(Cl)(Cl)Cl).

`CCCc1ccc(C#Cc2cc(C#Cc3ccc(N(C)C)cc3)c3ccc4c(C#Cc5ccc(N(C)C)cc5)cc(C#Cc5ccc(N(C)C)cc5)c5ccc2c3c54)cc1` returned an emission maximum (in ClCCl) of 603 nm.

With `[O-][n+]1c(-c2ccccc2)cc(N2CCOCC2)nc1/C=C/c1ccccc1`, under “in ClCCl”, the emission maximum is reported as 548 nm.

Compound `CCCCn1c2ccc(-c3cccc(F)c3)cc2c2ccc3c4cc(-c5cccc(F)c5)ccc4n(CCCC)c3c21` registered an emission maximum (in ClC(Cl)Cl) of 411 nm.

`C(=C\c1ccncn1)/c1ccc(N2CCCCC2)cc1` gave an emission maximum (in C1CCOC1) of 486 nm; an emission maximum (in CC#N) of 514 nm; an emission maximum (in CCCCCCC) of 435 nm; an emission maximum (in CS(C)=O) of 521 nm; an emission maximum (in ClCCl) of 498 nm.

`CCCCCCCCCCCCCCCCCCN1C(=O)c2ccc3c4ccc5c6c(ccc(c7ccc(c2c37)C1=O)c64)C(=O)N(CCCCCCCCCCCCCCCCCC)C5=O` yielded an emission maximum (in CN(C)C=O) of 535 nm.

On to `O=S(=O)([O-])c1ccc2c(O)cc(S(=O)(=O)[O-])cc2c1`, for which, where the note is “in O”, the emission maximum stood at 385 nm.

`CC1(C)C(/C=C/C2=C(Cl)C(=C/C=C3/N(CCCS(=O)(=O)[O-])c4ccccc4C3(C)C)/CCC2)=[N+](CCCS(=O)(=O)[O-])c2ccccc21` had an emission maximum (in CO) of 802 nm.

As to `CC1(C)c2cc(-c3ccc4ccc5cccc6ccc3c4c56)ccc2-c2ccc(-c3ccc4ccc5cccc6ccc3c4c56)cc21`, for the setting “in ClCCl”, the emission maximum is reported as 421 nm.

Compound `COc1ccc(C2=C3C(C)=CC(C)=[N+]3[B-](F)(F)n3c(/C=C/c4ccc(N(C)C)cc4)cc(C)c32)cc1` came in with an emission maximum (in C1CCCCC1) of 612 nm; an emission maximum (in C1CCOC1) of 664 nm; an emission maximum (in C1COCCO1) of 648 nm; an emission maximum (in CC1CCCCC1) of 612 nm; an emission maximum (in CC#N) of 717 nm; an emission maximum (in CC(C)=O) of 695 nm. Further, the emission maximum is, setting by setting: (in CC(C)OC(C)C) 629 nm; (in CCC#N) 710 nm; (in CCCC#N) 695 nm; (in CCCCO) 678 nm; (in CCCCOCCCC) 627 nm; (in CCOC(C)=O) 665 nm. Besides, the emission maximum by setting is: (in CCOCC) 641 nm; (in CN(C)C=O) 718 nm; (in CO) 696 nm; (in CS(C)=O) 737 nm; (in Cc1ccccc1) 640 nm; (in ClC(Cl)Cl) 656 nm.

Regarding `CCCCCCCCc1ccc(-n2c3c(c4c2c2c(n4-c4ccc(CCCCCCCC)cc4)-c4ccccc4NB2c2ccccc2)B(c2ccccc2)Nc2ccccc2-3)cc1`, under “in Cc1ccccc1”, the emission maximum is 400 nm.

`N#Cc1c(-n2c3ccccc3c3ccccc32)c(-n2c3ccccc3c3ccccc32)c(-n2c3ccccc3c3ccccc32)c(-n2c3ccccc3c3ccccc32)c1-n1c2ccccc2c2ccccc21`: the emission maximum was 451.82 nm (in CCCCCC); 515.31 nm (in CCO); 464 nm and 470 nm (in Cc1ccccc1); 497.22 nm (in ClCCl); 486 nm (in c1cc(-c2cccc(-n3c4ccccc4c4ccccc43)c2)cc(-n2c3ccccc3c3ccccc32)c1).

On to `CCN(CC)c1ccc2c(c1)oc(=O)c1c(=O)oc3cc(Br)ccc3c12`, for which the emission maximum runs as follows: (in CS(C)=O) 572 nm; (in ClCCl) 540 nm.

For `c1ccc(-c2ccc(-c3cc(-c4ccc(-c5ccccc5)cc4)cc(-c4ccc(-c5ccccc5)cc4)c3)cc2)cc1`, the emission maximum (in C1COCCO1) is 364 nm.

For the compound `COc1ccc(-c2nc3ccccc3oc2=O)cc1`, the emission maximum (in c1ccccc1) is 444 nm.

With `O=c1c2cc(F)c(N3CCCCC3)cc2oc2cc(N3CCCCC3)c(F)cc12`, the emission maximum (in CCO) was determined as 457 nm.

Consider `COC(=O)/C(C#N)=c1\s/c(=c2/s/c(=C(/C#N)C(=O)OC)c3cc(-c4ccc(C)cc4)sc23)c2sc(-c3ccc(C)cc3)cc12`, for which the emission maximum (in Cc1ccccc1) is 652 nm.

For the setting “in CO”, `CCN(CC)c1ccc(C=Cc2nc3nc4ccccc4nc3s2)cc1` had an emission maximum of 630 nm.

`CCCCCCCCCCOc1cc(OCCCCCCCCCC)cc(C2=C3C(C)=CC(/C=C/c4ccc(OC)cc4)=[N+]3[B-](F)(F)n3c(/C=C/c4ccc(OC)cc4)cc(C=Cc4ccc(OC)cc4)c32)c1` registered an emission maximum (in ClC(Cl)Cl) of 682 nm.

`COc1ccc2c(c1)c(C#N)c(C#N)c1cc(OC)ccc12`: where the note is “in ClC(Cl)Cl”, the emission maximum was 440 nm.

As to `Cc1ccc(-c2cc(/C=C/c3ccc(N(c4ccccc4)c4ccccc4)cc3)c(-c3ccc(C)cc3)cc2/C=C/c2ccc(N(c3ccccc3)c3ccccc3)cc2)cc1`, for the setting “in ClCCl”, the emission maximum was 492 nm.

Compound `Oc1ccc2ccccc2c1/C=N/c1cc2nc3ccccc3nc2cc1/N=C/c1c(O)ccc2ccccc12` showed an emission maximum (in CC#N) of 525 nm.

Where the note is “in C1CCOC1”, `Cc1ccc(-c2cnc3nn4ccccc4c3c2)cc1` came in with an emission maximum of 418 nm.

The compound `O=P1(c2ccccc2)c2cccc3c4c5ccccc5c5ccccc5c4c4ccc1n4c23` (stereo not drawn) gave an emission maximum (in ClCCl) of 490 nm.

In the case of `CCC1=C(C)C2=C(C)c3c(C)c(-c4csc(N5CCOCC5)n4)c(C)n3[B-](F)(F)[N+]2=C1C`, the emission maximum came to 618 nm (in C1CCOC1); 606 nm (in C1COCCO1); 543 nm (in CC#N); 538 nm (in CC(C)O); 539 nm (in CCO); 549 nm (in CCOC(C)=O). Also, the emission maximum is recorded as 539 nm (in CN(C)C=O); 540 nm (in CO); 539 nm (in CS(C)=O); 597 nm (in Cc1ccccc1); 603 nm (in ClC(Cl)Cl); 537 nm (in ClCCl).

In the case of `CN(C)c1ccc(C2=Cc3cc(Cl)nc[n+]3[B-](F)(F)O2)cc1`, the emission maximum (in C1CCOC1) was 532 nm; the emission maximum (in CC#N) came out at 565 nm; the emission maximum (in CCCCCC) is recorded as 456 nm; the emission maximum (in Cc1ccccc1) amounted to 494 nm; the emission maximum (in ClC(Cl)Cl) is given as 512 nm; the emission maximum (in ClCCl) worked out at 529 nm.

On to `F[B-]1(F)n2cccc2C(c2ccc(-c3c4ccccc4c(-c4ccccc4)c4ccccc34)cc2)=C2C=CC=[N+]21`, for which the emission maximum is 516 nm (in CC#N); 517 nm (in CCCCCC); 516 nm (in CCO); 520 nm (in CN(C)C=O); 524 nm (in Cc1ccccc1); 518 nm (in ClCCl).

In turn, `CC1=[N+]2C(=C(c3ccc(C=O)cc3)c3ccc(C)n3[B-]2(F)F)C=C1c1cc2n(c1)[B-](F)(F)[N+]1=CC=CC1=C2c1c(C)cc(C)cc1C` returned an emission maximum (in C1CCCCC1) of 657 nm and an emission maximum (in CCOC(C)=O) of 669 nm.

As for `C[Si]1(C)c2cc(C#Cc3ccccc3)ccc2C=Cc2ccc(C#Cc3ccccc3)cc21`, for the setting “in ClCCl”, the emission maximum was 407 nm.

Compound `N#Cc1nc(N(Cc2ccc(I)cc2)Cc2ccc(I)cc2)c(C#N)nc1N(Cc1ccc(I)cc1)Cc1ccc(I)cc1` registered an emission maximum (in ClC(Cl)Cl) of 574 nm.

As to `CC[n+]1c(-c2ccccc2)c2cc(NC(N)=O)ccc2c2ccc(NC(N)=O)cc21`, the emission maximum (in O) was found to be 520 nm.

`c1ccc(/C(=C(\c2ccccc2)c2cc(-c3ccccc3)ccc2-c2ccc(-c3ccccc3)cc2)c2cc(-c3ccccc3)ccc2-c2ccc(-c3ccccc3)cc2)cc1`: the emission maximum (in C1CCOC1) came out at 494 nm.

For `CNC1=C2C=CC=[N+]2[B-](F)(F)n2cccc21`, the emission maximum amounted to 463 nm (in C1CCCCC1); 441.5 nm (in CC(C)=O); 439 nm (in CCO); 444.5 nm (in CCOC(C)=O); 440 nm (in CO); 449 nm (in OCC(F)(F)F).

Turning to `COc1ccc(/C=C/c2cc(/C=C/c3ccc(OC)cc3)nc(/C=C/c3ccc4cc(OC)ccc4c3)n2)cc1`, the emission maximum was 433 nm (in C1CCOC1); 463 nm (in CC#N); 445 nm (in CC(C)=O); 401 nm (in CCCCCCC); 471 nm (in CS(C)=O); 411 nm (in Cc1ccccc1). Moreover, the emission maximum (in ClCCl) was 443 nm.

Turning to `CC(C)(C)c1ccc(-c2cc(-c3ccc(-c4cc(-c5ccc(C(C)(C)C)cc5)c(C(=O)NC5CCCCC5)s4)s3)sc2C(=O)NC2CCCCC2)cc1`, the emission maximum (in ClCCl) was 448 nm.
